# Data: EP4029502A1, “PYRAZOLINE-DERIVED COMPOUND (ENFLICOXIB) FOR USE IN THE PREVENTION AND/OR TREATMENT OF PAIN AND INFLAMMATION ASSOCIATED TO SURGERY IN MAMMALS” (Ecuphar N.V., priority 2021, dated 2022)
# Read-outs that look alike come from different tables or passages of the source.
# Key:
# [1] = test system: dogs undergoing experimental orthopaedic surgery; assay: Control of postoperative pain and inflammation after experimental orthopaedic (knee) surgery, Maquet Modified Procedure; type: in vivo, Beagle dogs
# Procedure: The study was performed with 6 clinically healthy Beagle dogs with similar age and weight that were experimentally subjected to knee surgery (repair of cranial cruciate ligament rupture). […] All surgeries were conducted under the same preoperative, intraoperative and postoperative protocols and performed by the same surgeon. A highly standardized surgical technique, Maquet Modified Procedure (MMP) (12) was implemented.
# For each dog the study lasted 17 days, including a 7-day acclimatization period. On day D-1 (approximately 24h before the intervention) the five dogs in the TG received a single oral dose (8 mg/kg) of the TP, the one dog in the CG received a single subcutaneous dose (0.1 mg/kg) of the RP. […] On day D0 all dogs underwent knee surgery in the right knee. From day D1 up to day D10 dogs were closely examined and signs of pain and discomfort were blindly evaluated and rated using the Short Form of the Glasgow Composite Pain Scale (SFGCPS) ranging from 0 to 24 (13 and http://www.newmetrica.com/cmps/). On day D-1 dogs were also examined to rule out signs of pain or discomfort.
# [2] = test system: dogs undergoing soft tissue surgery; type: in vivo; design: Vocalization (SFGCMPS average value) / Attention to wound (SFGCMPS average value) / Mobility (SFGCMPS average value) / Demeanour (SFGCMPS average value) / Posture/Activity (SFGCMPS average value) / Total SFGCMPS (average value): scale not given here
# Description: The study was a single centre, prospective, parallel-controlled, randomized and blinded pilot field trial with a negative (Placebo) control to evaluate the efficacy of E-6087 in dogs undergoing elective soft tissue surgery.
# Twenty dogs (17 females and 3 males) were included in the study. Dogs were of different breeds or crossbreed, ages from 3 months to 7 years and weights from 4 to 34 kg. All dogs were clinically healthy other than the condition causing the animal to go under surgery.
# Two days before surgery animals were weighed, a detailed physical examination was performed, and blood samples were collected for routine haematology and biochemistry to confirm the good health status of the animals before inclusion.
# Dogs were randomly allocated to receive either E-6087 or Placebo as oral tablets. E-6087 and Placebo tablets were similar (same appearance and packaging), therefore treatment administration, clinical examinations and blood sample analysis was always blind.
# E-6087 was administered at the dose of 8 mg/kg on day D-1, approximately 24h before surgery scheduled time, before the first meal of the day. Placebo tablets were administered following the same posology.
# Surgeries were performed in the morning, on day D0 by the Investigator (Surgeon). All surgeries were performed under the same anaesthesia protocol. Premedication was performed with medetomidine and morphine both at 0.1 ml/10 kg followed by anaesthesia maintained with Tiletamine/Zolazepam (Zoletil®). Local anaesthesia was not permitted. At the end of surgery, antibiotic therapy was administered to all dogs following the post-operative protocol stablished: amoxicillin (trihydrate) at 15 mg of amoxicillin/kg bw in a single dose.
# Clinical assessments of postoperative pain and inflammation were done by the Investigator (Examining Veterinarian) using the SFGCMPS (13). Visual Analog Scales (VAS) were also used to assess pain at rest and under palpation as well as the level of inflammation.
# On D0 at approximately 2 hours before surgery the Examining Veterinarian performed a physical examination and the clinical assessment of pain and inflammation to determine the basal scores. After surgery pain and inflammation were assessed at six examination time points: t1.5h, t3h, t5h (±30 minutes), t8h (±1hour), t24h and t168 (D7), when t0h corresponded to the end of surgery (extubation).
# Clinical assessment of pain and inflammation included assessments of vocalization, attention to wound area, mobility, reaction to pressure at the wound area, general behaviour as well as activity and posture as per SFGCMPS. In addition, pain at rest and after palpation as well as the level of inflammation were assessed at the same time points by VAS ranging from 0 (no pain) to 100 (severe pain manifested by vocalization, aggression, and refusal to allow examination) and from 0 (no inflammation) to 100 (major inflammation as local heat, redness or paresis of the affected area).
# Statistical Analysis was performed by use of commercially available software (SigmaPlot for Windows version 13.0). The area under the curve (AUC) was calculated for observable pain during the initial 8 and 24 hours, and it was considered as the primary efficacy variable. All analyses applied a two-sided significance level α = 0.05 and a power β = 80%. Demographic and baseline data were compared using the Mann-Whitney U test. Gender was compared with the Fisher exact probability test in contingency tables. Efficacy variables were analysed by repeated measures ANOVA.
# [3] = test system: dogs undergoing orthopaedic surgery; assay: Non-inferiority field study of postoperative pain and inflammation after orthopaedic surgery, meloxicam-controlled (SFGCMPS, VAS); type: in vivo
# Description: The study was a non-inferiority, multicentre, prospective, parallel-controlled, randomized and blinded field study.
# Thirty-two dogs of different breed, age and weight presenting at the veterinary practice for orthopaedic surgery were included.
# Agents with analgesic effect were permitted as premedication. However, intraoperative or postoperative analgesia were not permitted.
# For each dog the study lasted twelve days. Two days before surgery, all animals were weighed and underwent a thorough physical examination with clinical pathology to confirm the good health status of the animals before inclusion. Day 0 (D0) was the day dogs underwent surgery and t0h corresponded to the end of surgery (extubation). The physical examination was repeated on D0, before surgery (t-2h) and before dispatch (t8h) and again at t24h (D1) and t168 (D7) post-surgery. Clinical assessments of pain and inflammation were blindly performed on D0, before surgery (t-2h) and again at t1.5h, t3h, t5h, t8h, t24h (D1) and t168h (D7) post-surgery. The global efficacy of treatments was assessed on D7. From day D1 to day D7 post-surgery, the owners assessed the dog's wellbeing.
# The primary endpoint for efficacy comprises the sum of scores for the SFGCMPS scale, which was assessed at different time points by the Investigator.
# From day D1 to D7, owners daily assessed the dogs' wellbeing using scales for: • Demeanour (0=normal; 1=slightly modified; 2=moderately modified; 3=markedly modified and 4=severely modified). • Mobility (0=normal; 1=slightly impaired; 2=moderately impaired; 3=markedly impaired and 4=severely impaired). • Quality of analgesia as very satisfactory (=1); satisfactory (=2); not very satisfactory (=3); not at all satisfactory (=4).
# Blood samples were collected from all animals before inclusion (≤ D-2), for routine pre-surgery blood profile. Potential adverse effects related to the products were also recorded.
# Statistical Analysis was performed by use of commercially available software. All analyses used a two-sided significance level α = 0.05. […]
# [4] = 1.5h after surgery, 8 mg/kg oral on D-1
# [5] = 3h after surgery, 8 mg/kg oral on D-1
# [6] = 5h after surgery, 8 mg/kg oral on D-1
# [7] = 8h after surgery, 8 mg/kg oral on D-1
# [8] = 24h after surgery, 8 mg/kg oral on D-1
smiles,measurement,setting,value
"NS(=O)(=O)c1ccc(N2N=C(C(F)(F)F)CC2c2ccc(F)cc2F)cc1 (centres unmarked) [E-6087, enflicoxib]",need of rescue analgesia,[1]; 10 days follow up period,None of the animals needed rescue analgesia
same,potential adverse effects related to product administration,[1]; single oral dose 8 mg/kg on D-1,No potential adverse effects related to product administration were recorded
same,analgesic agent in the postoperative period after orthopaedic surgery,"[1]; single oral dose 8 mg/kg on D-1, SFGCPS 0-24, D1 to D10",effective
same,values of AUC for the first 24 hours after surgery compared with Placebo,"[2]; 8 mg/kg oral on D-1, not statistically significant (p=0.266)",almost half
same,AUC for the first 8 hours compared with Placebo,"[2]; 8 mg/kg oral on D-1, p=0,033",statistically significant lower values
same,Attention to wound (SFGCMPS average value),[2]; [4],0
same,Demeanour (SFGCMPS average value),[2]; [4],0.83
same,Mobility (SFGCMPS average value),[2]; [4],0.33
same,Posture/Activity (SFGCMPS average value),[2]; [4],0.17
same,Pressure on wound (SFGCMPS average value),[2]; [4],0.33
same,Total SFGCMPS (average value),[2]; [4],1.92
same,Vocalization (SFGCMPS average value),[2]; [4],0.25
same,Attention to wound (SFGCMPS average value),[2]; [5],0.08
same,Demeanour (SFGCMPS average value),[2]; [5],0.50
same,Mobility (SFGCMPS average value),[2]; [5],0
same,Posture/Activity (SFGCMPS average value),[2]; [5],0.08
same,Pressure on wound (SFGCMPS average value),[2]; [5],0.42
same,Total SFGCMPS (average value),[2]; [5],1.33
same,Vocalization (SFGCMPS average value),[2]; [5],0.25
same,level of inflammation (VAS 0-100) compared with Placebo,"[2]; 3 hours after surgery, p=0.021",Placebo was greater than for the group treated with E-6087
same,Attention to wound (SFGCMPS average value),[2]; [6],0.08
same,Demeanour (SFGCMPS average value),[2]; [6],0.17
same,Mobility (SFGCMPS average value),[2]; [6],0
same,Posture/Activity (SFGCMPS average value),[2]; [6],0
same,Pressure on wound (SFGCMPS average value),[2]; [6],0.50
same,Total SFGCMPS (average value),[2]; [6],0.75
same,Vocalization (SFGCMPS average value),[2]; [6],0
same,Attention to wound (SFGCMPS average value),[2]; [7],0
same,Demeanour (SFGCMPS average value),[2]; [7],0
same,Mobility (SFGCMPS average value),[2]; [7],0
same,Posture/Activity (SFGCMPS average value),[2]; [7],0
same,Pressure on wound (SFGCMPS average value),[2]; [7],0.67
same,Total SFGCMPS (average value),[2]; [7],0.50
same,Vocalization (SFGCMPS average value),[2]; [7],0
same,Attention to wound (SFGCMPS average value),[2]; [8],0
same,Demeanour (SFGCMPS average value),[2]; [8],0
same,Mobility (SFGCMPS average value),[2]; [8],0
same,Posture/Activity (SFGCMPS average value),[2]; [8],0
same,Pressure on wound (SFGCMPS average value),[2]; [8],0.50
same,Total SFGCMPS (average value),[2]; [8],0.50
same,Vocalization (SFGCMPS average value),[2]; [8],0
same,"AUC0→24h (SFGCMPS, observable pain)","[2]; first 24 hours after surgery, 8 mg/kg oral on D-1, primary efficacy variable","16,0±15"
same,Total scores for SFGCMPS at each time point compared with Placebo,"[2]; significant only at 1.5, 3 and 5 hours (p <0,001, 0.007 and 0.042)",always lower
same,alleviating pain and inflammation after soft tissue surgery,[2]; single dose of 8 mg/kg,effective
same,level of inflammation (VAS 0-100) compared with meloxicam,"[3]; at 3h, p= 0.025",lower values
same,"SFGCMPS (AUC), average value","[3]; initial 24 hours, TG: E-6087 8 mg/kg oral on D-1, CG: meloxicam 0.2 mg/kg s.c. or i.v. on D0, then 0.1 mg/kg oral daily D1 to D7, p=0.7962",95.50±57.70
same,SFGCMPS at each time point compared with CG,[3]; no statistically significant differences at any time point,most values were lower
